Our source for the IC50 values is patent US11485725B2, “Derivatives of piperlongumine and uses thereof” (Auransa Inc., priority 2017, dated 2022).

In test [1] the test system is HCT116 (colorectal cancer) cells. Briefly: Resazurin-based cell viability assay using colorectal cancer cells. As to conditions: Homo sapiens, HCT-116, 72 hr incubation. The method, then:
Determination of Potency of Compounds in Cell Viability Assay Using Colorectal Cancer Cells
The blue dye resazurin-based assay was performed to determine cell viability and used according to manufacture protocol (Sigma®). HCT116 (colorectal cancer) cells were seeded in the DMEM medium (10% FBS serum). Approximately 1,500 cells were plated per well in 96 well plates. Cells were allowed to grow at 37° C. for 24 hr in 5% CO2 environment in a humidified incubator. Serially diluted compounds (100 μL) were added to the culture plate after 24 hr. After addition of compounds, plates were incubated for 72 hr. Experiment was terminated at the designated incubation time by replacing the medium with 100 μL of 1 mM of resazurin (Sigma®) prepared in culture medium (DMEM) and were further incubated in culture conditions for 4-6 hours. Fluorescence was recorded using a multimodal plate reader (Biotek Synergy Neo®) at an excitation wavelength of 535 nm and emission wavelength of 590 nm to obtain relative fluorescence units. Data analysis was done by subtracting the background fluorescence (medium blank) value from each reading and then normalizing with the vehicle control (DMSO treated cells) to obtain percent survival/proliferation. IC50 was calculated from percent survival values using GraphPad Prism® (see Table 1).

In the next test the test system is MOLP-8. The experiment in a line: In vitro cell viability assay (CellTiter-Glo, ATP levels), multiple myeloma cells. The format is cell-based. As to conditions: Homo sapiens, MOLP-8, 168 h, 7-day incubation, CellTiter-Glo, average values; read-out: MOLP-8 IC50. The method, then: (§1) In Vitro Cell Viability Assay
(§2) The present disclosure provides a method for inhibiting cell viability, as measured by ATP levels. The method for inhibiting cell viability is drawn to contacting various cancer cells with the compounds described herein at various concentrations. The cancer cell lines were maintained in culture conditions at 37° C. in an atmosphere of 5% CO2 in air. The cells growing in an exponential growth phase were harvested and counted for plating. Compounds were incubated in two cancer cell types representing multiple myeloma (MOLP-8) and triple negative breast cancer (DU4475). Cells were plated at an optimized cell numbers per well in 96-well plates and allowed to attach to the plates overnight at approximately 80% confluency.
(§3) After addition of compounds, plates were incubated for 7-day. At the end of incubation period on day 8, media was removed and replaced with a solution of CellTiter-Glo™ reagent (Promega®) according to protocol. Luminescence was read using an EnVision® multi-label plate reader (Perkin-Elmer®), and signal intensity was calculated relative to positive and negative control wells. Cisplatin was included as the positive control. A dose-response calculation was performed in a non-linear regression fit and by using the Hill equation to calculate a concentration-response curve and 50% inhibitory concentration (IC50) values for each compound.
(§4) The average IC50 values of compounds 1-15 in multiple myeloma (MOLP-8) and triple negative breast cancer (DU4475) cells are shown in Table 1.
(In general: ATP-based viability assays read luminescence as a measure of living cells.)

The subject of the next test is DU4475. The experiment in a line: In vitro cell viability assay (CellTiter-Glo, ATP levels), triple negative breast cancer cells. The format is cell-based. Particulars: Homo sapiens, DU-4475, 168 h, 7-day incubation, CellTiter-Glo, average values; read-out: DU4475 IC50. The method, then:
as §1, §2, §3, §4

In general, IC50 refers to the concentration that gives 50% inhibition.

For `O=C1C=CCCN1C(=O)/C=C/C1CCN(S(=O)(=O)c2ccccc2)CC1` [Compound 57, (E)-1-(3-(1-(phenylsulfonyl)piperidin-4-yl)acryloyl)-5,6-dihydropyridin-2(1H)-one], the values for the IC50 (in test [1]; in the test on MOLP-8; in the test on DU4475) were 1360 nM, 680 nM and 530 nM, respectively.

Consider `Cc1n[nH]c(C)c1/C=C/C(=O)N1CCC=CC1=O` [Compound 81, (E)-1-(3-(3,5-dimethyl-1H-pyrazol-4-yl)acryloyl)-5,6-dihydropyridin-2(1H)-one], for which the IC50 was determined as 5100 nM in test [1], 1490 nM in the test on MOLP-8 and 2700 nM in the test with DU4475.

As to `C/C(=C/C1CCN(CC2CC2)CC1)C(=O)N1CCC=CC1=O` [Compound 79, (Z)-1-(3-(1-(cyclopropylmethyl)piperidin-4-yl)-2-methylacryloyl)-5,6-dihydropyridin-2(1H)-one], the IC50 in test [1] came to 2690 nM; in the test with MOLP-8 it was 1030 nM; in the test on DU4475, 1910 nM.

In the case of `C/C(=C\C1CCN(CC2CC2)CC1)C(=O)N1CCC=CC1=O` [Compound 77, (E)-1-(3-(1-(cyclopropylmethyl)piperidin-4-yl)-2-methylacryloyl)-5,6-dihydropyridin-2(1H)-one], the IC50 in test [1] amounted to 7500 nM; with MOLP-8 it was 3340 nM; in the test on DU4475, 5440 nM.

As for `CC1(C)C=CC(=O)N(C(=O)/C=C/C2CCN(C(=O)Nc3ccc(F)cc3)CC2)C1` [Compound 70, (E)-4-(3-(3,3-dimethyl-6-oxo-3,6-dihydropyridin-1(2H)-yl)-3-oxoprop-1-en-1-yl)-N-(4-fluorophenyl)piperidine-1-carboxamide], the IC50 in test [1] was found to be 7060 nM; in the test with MOLP-8 it was 1350 nM; in the test on DU4475, 1750 nM.

For `O=C1C=CCCN1C(=O)/C=C/c1cnc2c(c1)OCCO2` [Compound 24, (E)-1-(3-(2,3-dihydro-[1,4]dioxino[2,3-b]pyridin-7-yl)acryloyl)-5,6-dihydropyridin-2(1H)-one], the IC50 in test [1] turned out to be 1900 nM; in the test on MOLP-8, 320 nM; in the test on DU4475 it was 680 nM.

On to `O=C(/C=C/c1ncccn1)N1CCC=C(Br)C1=O` [Compound 40, 3-bromo-1-[(2E)-3-(pyrimidin-2-yl)prop-2-enoyl]-5,6-dihydropyridin-2(1H)-one], for which the IC50 in test [1] was determined as 360 nM; with MOLP-8, 40 nM; in the test on DU4475, 100 nM.

For `O=C1C=CCCN1C(=O)C=C1c2ccccc2-c2ccccc21` [Compound 10, 1-(2-(9H-fluoren-9-ylidene)acetyl)-5,6-dihydropyridin-2(1H)-one], the IC50 is 1900 nM in test [1], 2120 nM with MOLP-8 and 950 nM in the test with DU4475.

Regarding `O=C1C=CC(F)CN1C(=O)/C=C/c1ncccn1` (stereo not drawn) [Compound 37, (E)-5-fluoro-1-(3-(pyrimidin-2-yl)acryloyl)-5,6-dihydropyridin-2(1H)-one], the IC50 in test [1] amounted to 870 nM; in the test with MOLP-8 it was 110 nM; with DU4475, 420 nM.

Take `O=C1C=CCCN1C(=O)/C=C/C1CCOCC1` [Compound 34, 1-[(2E)-3-(tetrahydro-2H-pyran-4-yl)prop-2-enoyl]-5,6-dihydropyridin-2(1H)-one]: the IC50 is 3800 nM in test [1], 510 nM in the test with MOLP-8 and 1430 nM in the test with DU4475.

For the compound `O=C1C=CCCN1S(=O)(=O)/C=C/c1ncccn1` [Compound 66, 1-{[(E)-2-(pyrimidin-2-yl)ethenyl]sulfonyl}-5,6-dihydropyridin-2(1H)-one], the results for the IC50 (in test [1]; in the test with MOLP-8; in the test on DU4475) were 3110 nM, 210 nM and 950 nM, respectively.

`Cc1noc(/C=C/C(=O)N2CCCC=CC2=O)n1` [Compound 17, (E)-1-(3-(3-methyl-1,2,4-oxadiazol-5-yl)acryloyl)-1,5,6,7-tetrahydro-2H-azepin-2-one]: the IC50 was determined as 5930 nM in test [1], 330 nM with MOLP-8 and 1160 nM in the test with DU4475.

Regarding `Cn1cc(/C=C/C(=O)N2CC(C)(C)C=CC2=O)cn1` [Compound 85, (E)-5,5-dimethyl-1-(3-(1-methyl-1H-pyrazol-4-yl)acryloyl)-5,6-dihydropyridin-2(1H)-one], the IC50 in test [1] is 31000 nM; with MOLP-8, 4600 nM; in the test on DU4475, 6790 nM.

For `O=C1C=CCCN1C(=O)C=C(c1ccccc1)c1ccccc1` [Compound 29, 1-(3,3-diphenylacryloyl)-5,6-dihydropyridin-2(1H)-one], the results for the IC50 (in test [1]; in the test on MOLP-8; with DU4475) were 6400 nM, 2700 nM and 1720 nM, respectively.

As for `O=C1C=CCCN1C(=O)/C=C/c1ncc2c(n1)OCCO2` [Compound 80, (E)-1-(3-(6,7-dihydro-[1,4]dioxino[2,3-d]pyrimidin-2-yl)acryloyl)-5,6-dihydropyridin-2(1H)-one], the IC50 was 3210 nM in test [1], 1150 nM in the test with MOLP-8 and 1800 nM in the test with DU4475.

As to `O=C1C=CCCN1C(=O)/C=C/c1cccnn1` [Compound 27, (E)-1-(3-(pyridazin-3-yl)acryloyl)-5,6-dihydropyridin-2(1H)-one], the IC50 is 1900 nM in test [1], 760 nM with MOLP-8 and 950 nM with DU4475.

On to `O=C(/C=C/c1ncccn1)N1CCC=C(Cl)C1=O` [Compound 35, (E)-3-chloro-1-(3-(pyrimidin-2-yl)acryloyl)-5,6-dihydropyridin-2(1H)-one], for which the IC50 in test [1] was found to be 380 nM; in the test with MOLP-8, 80 nM; in the test on DU4475, 210 nM.

For the compound `O=C1C=CCCN1C(=O)/C=C/C1CCN(c2ccccn2)CC1` [Compound 74, (E)-1-(3-(1-(pyridin-2-yl)piperidin-4-yl)acryloyl)-5,6-dihydropyridin-2(1H)-one], the IC50 in test [1] worked out at 2580 nM; with MOLP-8, 660 nM; in the test with DU4475 it was 1000 nM.

In the case of `O=C1C=CCCN1C(=O)/C=C/c1cnn(C2CC2)c1` [Compound 86, (E)-1-(3-(1-cyclopropyl-1H-pyrazol-4-yl)acryloyl)-5,6-dihydropyridin-2(1H)-one], the IC50 in test [1] is 3830 nM; in the test with MOLP-8, 850 nM; in the test on DU4475 it was 1670 nM.

Turning to `O=C(Nc1ccc(F)cc1)N1CCC(/C=C/C(=O)N2CCC=CC2=O)CC1` [Compound 58, N-(4-fluorophenyl)-4-[(1E)-3-oxo-3-(6-oxo-3,6-dihydropyridin-1(2H)-yl)prop-1-en-1-yl]piperidine-1-carboxamide], the IC50 in test [1] is 1100 nM; in the test with MOLP-8, 380 nM; with DU4475 it was 440 nM.

For `C/C(=C/C1CCN(C(=O)OC(C)(C)C)CC1)C(=O)N1CCC=CC1=O` [Compound 71, (Z)-tert-butyl 4-(2-methyl-3-oxo-3-(2-oxo-5,6-dihydropyridin-1(2H)-yl)prop-1-enyl)piperidine-1-carboxylate], the results for the concentration for half-maximal inhibition (IC50) (in test [1]; with MOLP-8; in the test on DU4475) were 13600 nM, 3910 nM and 4670 nM, respectively.

Consider `O=C1C=CC(O)CN1C(=O)/C=C/c1ncccn1` (stereo not drawn) [Compound 32, 5-hydroxy-1-[(2E)-3-(pyrimidin-2-yl)prop-2-enoyl]-5,6-dihydropyridin-2(1H)-one], for which the IC50 was determined as 7200 nM in test [1], 380 nM in the test with MOLP-8 and 1490 nM in the test with DU4475.

Take `C/C(=C\C1CCN(C(=O)Nc2ccc(F)cc2)CC1)C(=O)N1CCC=CC1=O` [Compound 73, (E)-N-(4-fluorophenyl)-4-(2-methyl-3-oxo-3-(6-oxo-3,6-dihydropyridin-1(2H)-yl)prop-1-en-1-yl)piperidine-1-carboxamide]: the results for the IC50 (in test [1]; in the test on MOLP-8; in the test with DU4475) were 4280 nM, 950 nM and 1620 nM, respectively.

Take `COc1cc(/C=C/S(=O)(=O)N2CCC=CC2=O)cc2c1OCCO2` [Compound 76, 1-{[(E)-2-(8-methoxy-2,3-dihydro-1,4-benzodioxin-6-yl)ethenyl]sulfonyl}-5,6-dihydropyridin-2(1H)-one]: the IC50 in test [1] turned out to be 1850 nM; with MOLP-8, 563 nM; in the test on DU4475 it was 1000 nM.

With `O=C1C=CCCCN1C(=O)/C=C/c1cnc2c(c1)OCCO2` [Compound 26, (E)-1-(3-(2,3-dihydro-[1,4]dioxino[2,3-b]pyridin-7-yl)acryloyl)-6,7-dihydro-1H-azepin-2(5H)-one], the IC50 is 3420 nM in test [1], 170 nM with MOLP-8 and 630 nM in the test with DU4475.
